According to patent US11421001B2, “Template-fixed peptidomimetics” (UNIVERSITAET ZUERICH, priority 2007, dated 2022):

Columns and labels:
[1] = system: hematopoietic progenitors (CFU-GM); experiment: Stem cell mobilisation, mice model (CFU-GM); format: in vivo, mouse
Text: The aim of the study was to evaluate the ability of the compound of Example 1 and Example 2 to mobilize hematopoietic progenitors from mouse bone marrow to peripheral blood using in-vitro hematopoietic colony assays. In humans, accurate information about progenitor cell mobilization is provided by the colony forming unit granulocyte-monocyte (CFU-GM) assay or by determining the abundance of CD34(+) cells by FACS analysis (see ref. 10 below). In mice, CD34 is not a useful marker for stem cells; instead the CFU-GM is more commonly used (see ref. 11 below).
In order to assess the ability of the compounds of Example 1 and Example 2 to mobilize murine stem cells (CFU-GM) C3H/HeJ female mice (Jackson Laboratory) were injected s.c. with 5 mg/k, of the compounds of Example 1 and of Example 2 and as reference AMD3100 (Broxmeyer, et al, J Exp Med 201, 1307-1318), (currently undergoing Phase III clinical trials) for stem cell mobilisation. Peripheral blood samples from 5 animals per test group were collected at each time point and nucleated cell counts performed as standard assays.

[2] = Cytotoxicity assay (MTT reduction); format: cell-based; conditions: human, HELA cells (Acc57), peptides at 12.5, 25 and 50 μM, trend line, read-out: Cyto-toxicity LC50/GI50 Hela cells
Description: The cytotoxicity of the peptides to HELA cells (Acc57) and COS-7 cells (CRL-1651) was determined using the MTT reduction assay [see ref. 6 and 7, below]. Briefly the method was as follows: HELA cells and COS-7 cells were seeded at 7.0×10^3 and, respectively, 4.5×10^3 cells per well and grown in 96-well microtiter plates for 24 hours at 37° C. at 5% CO2. At this point, time zero (Tz) was determined by MTT reduction (see below). The supernatant of the remaining wells was discarded, and fresh medium and the peptides in serial dilutions of 12.5, 25 and 50 μM were pipetted into the wells. Each peptide concentration was assayed in triplicate. Incubation of the cells was continued for 48 hours at 37° C. at 5% CO2. Wells were then washed once with PBS and subsequently 100 μl MTT reagent (0.5 mg/mL in medium RPMI1640 and, respectively, DMEM) was added to the wells. This was incubated at 37° C. for 2 hours and subsequently the medium was aspirated and 100 μl isopropanol was added to each well. The absorbance at 595 nm of the solubilized product was measured (OD595peptide). For each concentration averages were calculated from triplicates. The percentage of growth was calculated as follows: (OD595peptide−OD595Tz−OD595Empty well)/(OD595Tz−OD595Empty well)×100% and was plotted for each peptide concentration. […]

[3] = Plasma stability, rat plasma; format: in vitro ADME; conditions: read-out: Stability rat Plasma t1/2
[4] = Maximum tolerated dose in mice; format: in vivo, mouse; conditions: mouse, i.v.
Description: 3.1. Maximum Tolerated Dose in Mice
a) The compound of Example 1, dispersed in Water for Injection or 0.9% physiological saline), was administered, in the preliminary study, by i.v. injection at dose levels of 35, 50, 70, 85, 100, 150, 250 or 500 mg/kg to groups consisting of one male and one female mouse (Crl:CD1(ICR)). In addition, two groups comprising two male and two female mice received dose levels of 90 and 100 mg/kg, respectively, and the 50 mg/kg dose level was repeated in a group comprising one male and one female.
b) Maximum tolerated dose studies (MTD) carried out with the compound of Example 2 using CD1 mice (3 mice/group) and was performed using i.v, ip and sc. administration.

[5] = Plasma stability, human plasma; format: in vitro ADME; conditions: read-out: Stability human Plasma t1/2
[6] = system: CD34(+) hematopoietic cells; experiment: Stem cell mobilisation, monkey model (CD34(+) cells by FACS); format: in vivo, cynomolgus monkeys (Macaca fascicularis); conditions: cynomolgus monkeys, slow bolus i.v. injection
Description: An assessment of mobilization of peripheral-blood hematopoietic stem cells in cynomolgus monkeys (Macaca fascicularis) was performed. The compound of Example 1 was administered to 4 monkeys (2 male and 2 female) as a slow bolus i.v. injection over 2 minutes and CD34(+) cells were determined by FACS analysis. Toxicokinetic blood sampling was also performed.

human CXCR4 = molecular target: T1, human CXCR4 (Homo sapiens, UniProt P61073); experiment: Ca2+ assay: CXCR4-antagonizing activity; format: cell-based
T1 construct: expressed in transfected cells; host or cells: mouse pre-B cell line 300-19
Description: 2.2. Ca^2+− Assay: CXCR4-Antagonizing Activity of the Peptides.
Increases in intracellular calcium were monitored using a Flexstation 384 (Molecular Devices, Sunnyvale, Calif.) to assay the peptides for CXCR4 antagonism in a mouse pre-B cell line 300-19 stably transfected with human CXCR4 [see references 1, 2 and 3, below]. The cells were batch loaded with the Calcium 3 Assay kit (Molecular Devices) in assay buffer (Hanks Balanced salt solution, HBSS, 20 mM HEPES, pH 7.4, 0.1% BSA) for 1 h at room temperature and then 200,000 labeled cells were dispensed into black 96 well assays plates (Costar No. 3603). A 20-fold concentrated solution of peptide in assay buffer was added to the cells and the whole plate was centrifuged to settle the cells to the bottom of the wells. Calcium mobilization induced by 10 nM stromal-derived factor-1 (SDF-1) was measured in the Flexstation 384 (excitation, 485 […]) for 90 seconds. A maximal change in fluorescence response above baseline was used to calculate antagonist activity. The data for dose response curves (antagonist concentration versus % maximum response) were fitted to a four parameter logistic equation using SoftmaxPro 4.6 (Molecular Devices), from which IC50% values were calculated.

[7] = system: human red blood cells (hRBC); experiment: Hemolysis; format: cell-based; conditions: 100 μM peptide, 20% v/v hRBC, 1 hour at 37° C.; percent hemolysis per method
Description: The peptides were tested for their hemolytic activity against human red blood cells (hRBC). Fresh hRBC were washed three times with phosphate buffered saline (PBS) by centrifugation for 10 min at 2000×g. Peptides at a concentration of 100 μM were incubated with 20% v/v hRBC for 1 hour at 37° C. The final erythrocyte concentration was approximately 0.9×10^9 cells per ml. A value of 0% resp. 100% cell lysis was determined by incubation of the hRBC in the presence of PBS alone and respectively 0.1% Triton X-100 in H2O. The samples were centrifuged and the supernatant was 20-fold diluted in PBS buffer and the optical density (OD) of the sample at […] was measured. The 100% lyses value (OD540H2O) gave an OD540 of approximately 1.3-1.8. Percent hemolysis was calculated as follows: (OD540peptide/OD540H2O)×100%.

[8] = 14-day intravenous injection toxicity and toxicokinetic study in mice; format: in vivo, mouse
Description: 3.2 Repeated Toxicity Studies in Mice
The toxicity and toxicokinetics of the compound of Example 1 was investigated following daily i.v. injection in the mouse for at least 14 days. Groups of 12 male and 12 female Crl:CD1(ICR) mice received dose preparations containing control article (50 mM sodium dihydrogen orthophosphate buffer containing 0.9% w/v sodium chloride) or 8, 24, or 40 mg/kg/day POL6326 at a dose volume of 5 mL/kg. Satellite groups of 24 animals per sex per group were included at each dose level. Assessment of toxicity was based on mortality, clinical signs, body weights, food consumption, ophthalmic examinations, clinical and anatomic pathology, and toxicokinetic evaluations.

[9] = mouse, 8, 24 or 40 mg/kg/day i.v.

T1 sequence (P61073 whole entry): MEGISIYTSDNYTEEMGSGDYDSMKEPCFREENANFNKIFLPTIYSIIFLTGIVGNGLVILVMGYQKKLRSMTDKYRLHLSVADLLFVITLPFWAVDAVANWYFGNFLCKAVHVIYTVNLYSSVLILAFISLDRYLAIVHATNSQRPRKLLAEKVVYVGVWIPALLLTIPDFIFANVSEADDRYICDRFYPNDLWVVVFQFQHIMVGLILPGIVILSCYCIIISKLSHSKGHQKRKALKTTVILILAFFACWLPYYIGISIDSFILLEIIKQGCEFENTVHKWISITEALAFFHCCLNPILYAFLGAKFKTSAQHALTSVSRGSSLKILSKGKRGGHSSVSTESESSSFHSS

Row | SMILES | effect on CFU-GM blood cell numbers / progenitors over time ([1]; C3H/HeJ mice, 5 mg/kg s.c., compared to control mice) | CC50 at 48 h [2] | half-life at 10 µM [3] | acute minimum lethal intravenous dose level [4] | return of CFU-GM to baseline levels, time post administration ([1]; C3H/HeJ mice, 5 mg/kg s.c.) | time of maximal effect on CFU-GM blood cell numbers ([1]; C3H/HeJ mice, 5 mg/kg s.c.) | dose of peak level increase in release of CFU-GM (dose response) ([1]; mice, follow up dose response study) | half-life at 10 µM [5] | duration of mobilisation [6] | mobilization of CD34(+) hematopoietic cells [6] | time of peak level of mobilization [6] | IC50 (human CXCR4) | Hemo-lysis at 100 μM [7] | NOAEL at 14 days ([8]; both sexes, Crl:CD1(ICR), in vivo, iv, mouse, daily i.v. dosing, 14 days, read-out: NOAEL level) | white blood cell and absolute lymphocyte counts ([8]; females given 40 mg/kg/day) | clinical chemistry results [8, 9] | effect on body weight, body weight change, food consumption, ophthalmic observations [8, 9] | test article-related gross lesions [8, 9] | test article-related microscopic lesions [8, 9]
1 | c1cc(CN2CCCNCCNCCCNCC2)ccc1CN1CCCNCCNCCCNCC1 [AMD3100, reference compound] | increase in the frequency and number of progenitors at 30 and 60 minutes | – | – | – | – | – | – | – | – | – | – | – | – | – | – | – | – | – | –
2 | C[C@@H]1NC(=O)[C@H](Cc2c[nH]cn2)NC(=O)[C@H](Cc2ccc(O)cc2)NC(=O)[C@@H]2CCCN2C(=O)[C@H]2CCCN2C(=O)[C@H](CCCCN)NC(=O)[C@H](CCC(N)=O)NC(=O)[C@H](Cc2ccc(O)cc2)NC(=O)[C@@H]2CSSC[C@H](NC1=O)C(=O)N[C@@H](CO)C(=O)N[C@@H](C)C(=O)N1CCC[C@@H]1C(=O)N[C@@H](CCN)C(=O)N[C@@H](CCCNC(=N)N)C(=O)N[C@@H](Cc1ccc(O)cc1)C(=O)N2 [Example 1] | – | > 50 µM | > 240 min | exceed 90 mg/kg | 6 h | 120 min | 5 mg/kg | > 240 min | transient | induced mobilization of CD34(+) hematopoietic cells | peak level at two hours | 5.5 nM | 0.6 | 40 mg/kg/day | mildly higher | unaffected | no notable effect | No test article-related gross lesions were recorded | No test article-related microscopic lesions were observed
